The results in this text go back to patent EP4759807A1, “PROTEOLYSIS TARGETING CHIMERA COMPOUND FOR DEGRADING IRAK4 AND USE THEREOF” (Shenzhen Zhongge Biological Technology Co., Ltd., priority 2023, dated 2025).

Data set [1] deals with T1, IRAK4 (Homo sapiens, UniProt Q9NWZ3).
T1 sequence (Q9NWZ3 1-460): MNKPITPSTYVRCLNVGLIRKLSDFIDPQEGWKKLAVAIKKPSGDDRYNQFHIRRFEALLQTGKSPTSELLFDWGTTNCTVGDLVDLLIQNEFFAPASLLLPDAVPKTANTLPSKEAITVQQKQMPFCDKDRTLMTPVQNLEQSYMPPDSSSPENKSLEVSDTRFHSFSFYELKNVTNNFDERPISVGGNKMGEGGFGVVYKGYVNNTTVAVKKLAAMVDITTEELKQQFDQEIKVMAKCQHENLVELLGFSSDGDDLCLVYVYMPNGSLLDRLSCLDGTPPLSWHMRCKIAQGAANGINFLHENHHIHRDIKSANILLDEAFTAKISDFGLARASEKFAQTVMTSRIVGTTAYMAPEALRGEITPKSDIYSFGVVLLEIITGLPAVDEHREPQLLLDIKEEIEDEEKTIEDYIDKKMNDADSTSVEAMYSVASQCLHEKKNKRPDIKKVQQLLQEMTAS
The data set is described as follows: Hibit fluorescence detection of proteolysis (IRAK4-HiBiT in HEK293T cells). It is filed as cell-based. More on the design: host or cells: HEK293T (ATCC). In short, it runs like this: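 Degradation read-out: luminescence from lytic HiBiT detection (15 min, room temperature) after 24 h compound exposure (37 °C, 5% CO2) of HEK293T cells transiently expressing IRAK4 fused to a HiBiT tag. Data fitted to a bell-shaped four-parameter model giving two EC50 values.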

The target in data set [2] is T2, CYP1A2 (Homo sapiens, UniProt P05177).
T2 construct: 0.05 mg/mL liver microsomes (BioIVT, IHG) phosphate buffer solution; tissue BioIVT IHG; host or cells: human liver microsomes
T2 sequence (P05177 1-516): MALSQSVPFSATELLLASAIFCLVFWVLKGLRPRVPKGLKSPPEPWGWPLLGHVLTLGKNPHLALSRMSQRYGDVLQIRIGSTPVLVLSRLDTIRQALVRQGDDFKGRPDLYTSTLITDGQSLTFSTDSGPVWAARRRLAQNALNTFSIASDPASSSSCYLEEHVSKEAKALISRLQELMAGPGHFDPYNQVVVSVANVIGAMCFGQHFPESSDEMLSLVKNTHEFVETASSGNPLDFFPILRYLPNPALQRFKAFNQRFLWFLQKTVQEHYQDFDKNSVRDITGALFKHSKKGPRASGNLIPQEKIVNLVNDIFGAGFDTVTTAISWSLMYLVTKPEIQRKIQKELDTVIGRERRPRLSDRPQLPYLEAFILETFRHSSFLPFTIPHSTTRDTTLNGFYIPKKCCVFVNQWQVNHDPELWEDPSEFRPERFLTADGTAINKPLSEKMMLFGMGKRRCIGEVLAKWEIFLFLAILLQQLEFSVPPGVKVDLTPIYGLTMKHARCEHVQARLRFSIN
As to the kind of experiment: Inhibitory effect on human liver microsome CYP450 enzyme. It counts as in vitro ADME. Conditions: human liver microsomes, substrate Phenacetin. Here is the method: (§1) In this experiment, the compound, liver microsomes and different CYP isoform enzyme substrates were incubated in a 37°C water bath, the amount of substrate metabolites generated was measured, and the inhibitory effect of the compound of the present disclosure on CYP enzyme was evaluated based on the IC50 value.
(§2) i. The compound was diluted with DMSO (Aladdin, catalog number: D103273-500ml) to concentrations of 0, 0.02, 0.06, 0.2, 0.6, 2 and 6 mM. The positive reference inhibitors for each CYP isoform and their concentrations are shown in Table 4 Table 4 Positive reference inhibitors for CYP isoform enzymes and their concentrations
(§3) ii. Phosphate buffer (sigma: V900050-500G) was used to formulate the substrate solution for each CYP isoform enzyme. Table 5 The substrate and the concentration thereof for CYP isoform enzyme
(§4) iii. Sample incubation. 1 µL of each concentration of the compound and positive reference inhibitor for CYP isoform enzyme were taken and placed into a 96-deep well plate (A-gen: P-1.0-RD-96-S), and 169 µL of 0.05 mg/mL liver microsomes (BioIVT, IHG) phosphate buffer solution (using 0.2 mg/mL liver microsomes for CYP2C19) was added. After uniform mixing, the plate was placed in a 37°C water bath (Shanghai Jinghong Experimental Equipment Co., Ltd., DK-500) with shaking for pre-incubation for 15 min. 10 µL of substrate (adding 1 µL of substrate for CYP3A4-Testosterone) and 20 µL of 10 mM NADPH phosphate buffer solution (MCE, HYF003/CS-4998) were added. After uniform mixing, the plate was incubated in a water bath with shaking for the following time: CYP1A2: 20 min, CYP2C9: 10 min, CYP2C19: 10 min, CYP2D6: 10 min, CYP3A4-Testosterone: 10 min, CYP3A4-Midazolam: 5 min. 400 µL of glacial acetonitrile/methanol (v/v, 1:1) containing an internal standard (500 nM tolbutamide, 5 nM terfenadine) was added to terminate the reaction. After centrifugation at 4000 rpm at 4°C for 40 min, the supernatant was taken and diluted with pure water according to the response of the metabolite of the substrate, and then UPLC-MS/MS (Sciex, Q-Trap 4500) was used for detection to obtain the peak area. The C18 chromatographic column was Kinetex 2.6u C18 100A (50 mm*3 mm).
(§5) The inhibitory effect of the compound on each P450 enzyme in human liver microsomes was calculated as the percentage of reduced metabolite formation compared with the non-inhibitory control (i.e. blank DMSO). The IC50 value of the compound for each P450 enzyme in human liver microsomes was calculated with the logarithm of the remaining activity and the inhibitor concentration using Graphpad Prism software. The calculation equation was as follows: Peak area ratio = compound peak area / internal standard peak area [formula] [formula]
(§6) In Graphpad Prism software, the IC50 value was calculated using the standard four-parameter curve fitting algorithm.
A general note: Microsomes from liver hold many membrane-bound enzymes, among them those of drug oxidation.

Data set [3] addresses T3, CYP2C9 (Homo sapiens, UniProt P11712).
T3 construct: 0.05 mg/mL liver microsomes (BioIVT, IHG) phosphate buffer solution; tissue BioIVT IHG; host or cells: human liver microsomes
Described as above. It is filed as in vitro ADME. Conditions: human liver microsomes, substrate Diclofenac Sodium. Here is the method:
as §1, §2, §3, §4, §5, §6

Data set [4] deals with T4, CYP2D6 (Homo sapiens, UniProt P10635).
T4 construct: 0.05 mg/mL liver microsomes (BioIVT, IHG) phosphate buffer solution; tissue BioIVT IHG; host or cells: human liver microsomes
The data set is described as above. Conditions: human liver microsomes, substrate Dextromethorphan. It counts as in vitro ADME. How it is done:
as §1, §2, §3, §4, §5, §6

T3 sequence (P11712 whole entry): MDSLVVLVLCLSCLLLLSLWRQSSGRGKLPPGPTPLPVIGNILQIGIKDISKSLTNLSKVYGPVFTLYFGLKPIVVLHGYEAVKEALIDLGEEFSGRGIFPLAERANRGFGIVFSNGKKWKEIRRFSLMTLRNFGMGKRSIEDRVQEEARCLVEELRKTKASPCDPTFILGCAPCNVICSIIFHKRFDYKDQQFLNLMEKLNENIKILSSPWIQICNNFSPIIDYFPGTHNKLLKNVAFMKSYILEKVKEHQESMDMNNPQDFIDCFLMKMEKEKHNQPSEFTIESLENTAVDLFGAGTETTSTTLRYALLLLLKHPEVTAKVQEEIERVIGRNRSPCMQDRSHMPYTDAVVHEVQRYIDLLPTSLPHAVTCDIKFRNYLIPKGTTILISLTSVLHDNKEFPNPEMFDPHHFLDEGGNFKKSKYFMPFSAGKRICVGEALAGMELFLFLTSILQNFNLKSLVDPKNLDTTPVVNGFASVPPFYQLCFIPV
T4 sequence (P10635 whole entry): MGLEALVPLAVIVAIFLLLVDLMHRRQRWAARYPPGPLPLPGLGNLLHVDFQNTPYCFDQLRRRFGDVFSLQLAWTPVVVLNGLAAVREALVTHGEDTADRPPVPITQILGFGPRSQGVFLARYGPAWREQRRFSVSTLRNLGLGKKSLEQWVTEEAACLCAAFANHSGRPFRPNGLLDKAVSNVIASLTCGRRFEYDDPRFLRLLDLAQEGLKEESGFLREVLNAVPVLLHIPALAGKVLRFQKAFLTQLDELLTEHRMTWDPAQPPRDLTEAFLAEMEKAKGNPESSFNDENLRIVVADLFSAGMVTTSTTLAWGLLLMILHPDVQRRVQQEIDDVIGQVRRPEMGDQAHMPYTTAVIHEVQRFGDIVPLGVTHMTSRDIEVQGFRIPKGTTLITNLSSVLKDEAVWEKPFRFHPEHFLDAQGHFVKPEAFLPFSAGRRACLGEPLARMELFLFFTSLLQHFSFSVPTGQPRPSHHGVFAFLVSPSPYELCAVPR

Broadly, the IC50 is the midpoint of a concentration-inhibition curve. A higher IC50 goes with weaker potency in that assay. Regarding `Cn1c(=O)n(C2CCC(=O)NC2=O)c2cccc(N3CCC(N4CCN(C[C@H]5CC[C@H](n6cc(-n7cc(-c8cnn9ccc(N%10CCC[C@H](O)C%10)nc89)nn7)c(C(F)F)n6)CC5)CC4)CC3)c21` (some centres unmarked) [Example 146], the Dmax in data set [1] (HEK-293T) is > 80%. Besides, in data set [1] (IRAK4-HiBiT, HEK293T cells, 24 h), the DC50 is < 0.0005 µM. Besides, the IC50 in data set [2], in data set [3] and in data set [4] was > 30 µM throughout.
